The record followed here is paper PMC4576851 (Organic & biomolecular chemistry, 2015).

For the assay, the target named is p97 (valosin containing protein, VCP, cdc48) (Homo sapiens, UniProt P55072). Put plainly: p97 ATPase inhibition assay. Type of assay: biochemical.

The structures appear in SMILES notation.

p97 (valosin containing protein, VCP, cdc48), sequence (P55072 2-806): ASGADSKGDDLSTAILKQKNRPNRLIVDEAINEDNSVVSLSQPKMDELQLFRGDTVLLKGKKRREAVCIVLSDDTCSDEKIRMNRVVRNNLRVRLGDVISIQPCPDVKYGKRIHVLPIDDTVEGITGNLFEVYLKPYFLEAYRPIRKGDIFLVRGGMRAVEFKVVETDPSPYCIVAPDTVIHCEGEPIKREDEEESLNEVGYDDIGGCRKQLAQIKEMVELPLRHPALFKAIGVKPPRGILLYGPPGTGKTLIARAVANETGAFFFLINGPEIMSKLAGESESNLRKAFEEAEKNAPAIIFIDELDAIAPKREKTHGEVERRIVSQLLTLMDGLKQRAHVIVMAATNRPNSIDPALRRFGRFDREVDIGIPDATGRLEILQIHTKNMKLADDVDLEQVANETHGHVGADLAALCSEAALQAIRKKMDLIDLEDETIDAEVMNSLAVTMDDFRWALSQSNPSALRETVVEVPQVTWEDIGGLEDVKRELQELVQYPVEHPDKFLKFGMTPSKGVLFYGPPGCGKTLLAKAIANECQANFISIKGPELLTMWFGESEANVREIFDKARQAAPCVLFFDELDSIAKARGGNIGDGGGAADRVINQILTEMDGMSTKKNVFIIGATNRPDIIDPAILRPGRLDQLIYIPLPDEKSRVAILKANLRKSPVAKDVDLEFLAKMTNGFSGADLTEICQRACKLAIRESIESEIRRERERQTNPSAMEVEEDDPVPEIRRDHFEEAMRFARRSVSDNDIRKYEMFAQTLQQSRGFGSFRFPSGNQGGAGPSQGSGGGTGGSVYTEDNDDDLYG

A word on the IC50: it is the midpoint of a concentration-inhibition curve. A lower IC50 goes with greater potency. `C=C1OC(=O)C2(C1=O)[C@H](/C=C/C=C/CCC)C=C[C@@H](O)[C@@H]2O` (stereo partly shown) [compound 2, oxaspirol B] yielded a half-inhibitory concentration (IC50) of 31.2 ± 3 µM.
